In publication PMC7570567, “Attempts to Target Staphylococcus aureus Induced Osteomyelitis Bone Lesions in a Juvenile Pig Model by Using Radiotracers” (Molecules, 2020):
Where a SMILES comes first, the peptide text is derived from it. Bridges are numbered along the chain shown (N, C = ends). The star is where a group is joined. DOTA = O=C(O)CN1CCN(CC(=O)O)CCN(CC(=O)*)CCN(CC(=O)O)CC1; AEEA = NCCOCCOCC(=O)O

Experiments:
[1] = system: Staphylococcus aureus induced osteomyelitis (OM) lesions; test: Static PET/CT tracer uptake in S. aureus induced osteomyelitis lesions, juvenile pig model; settings: for Standard uptake values (SUV) in OM lesions: static whole-body PET/CT about 1 h after i.v. tracer injection, day 6-7 after S. aureus S54F9 inoculation
Text: (§1) Fifteen domestic pigs, all clinically healthy, specific pathogen-free Danish Landrace Yorkshire cross-bred female pigs aged 8–9 weeks weighing 18.3–24.5 kg, were purchased from local commercial pig farmers. After at least one week of acclimatization, the pigs fasted over-night. Then they were premedicated with s-ketamine (Pfizer, Ballerup, Denmark) and midazolam (B. Braun Medical, Frederiksberg, Denmark) intramuscularly and anesthetized with propofol (B. Braun Medical, Frederiksberg, Denmark) intravenously. Finally, they were inoculated with a well-characterized porcine strain of S. aureus S54F9 (approximately 10,000 CFU/kg body weight) into the femoral artery of the right hind limb to induce OM in that limb, as described elsewhere. […] The pigs were all treated with 30–45 µg/kg buprenorphine (Indivior, Berkshire, United Kingdom) intramuscularly thrice daily from the time before inoculation and until scanning at day 6 and 7 after inoculation. After scanning, pigs were euthanized with an overdose of pentobarbitone (Scan Vet Animal Health, Fredensborg, Denmark) while still under anesthesia. Humane endpoints were: anorexia for more than 24 h, superficial respiration, the inability to stand up, or signs of systemic infection. […] The environment was characterized by a room temperature of 20 °C, relative humidity of 51–55%, 12 h in light/12 h in dark cycles, an exchange of air at least eight times per hour. Pigs were fasted overnight before anesthesia.
(§2) Osteomyelitis was verified by CT imaging, necropsy, histology, and/or bacterial cultivation.
(§3) The average injected activity was a median of 760 MBq (range 348–848 MBq) of [^68Ga]Ga-DOTA-K-A9, corresponding to ~17–46 MBq/kg and median 475 MBq (range 65–500 MBq) of [^68Ga]Ga-DOTA-GSGK-A11, corresponding to ~3–23 MBq/kg. PET was performed median ~60 min (60–61min) after injection of [^68Ga]Ga-DOTA-K-A9 (pigs 4–6, Table 1) and ~62 min (62–62 min) after injection of [^68Ga]Ga-DOTA-GSGK-A11 (pigs 7–8, Table 1) in the jugular vein.
(§4) Fluoride-18 was produced via the ^18O (p,n) ^18F nuclear reaction using a cyclotron. The target content was passed through a QMA-light Sep-Pak (Waters, Hedehusene, Denmark) to trap F-18. The solution was washed with 10 mL sterile water for injection (10 mL) to remove any residual [^18O]H2O and then dried with an argon stream. [^18F]NaF was set free by eluting the QMA Sep-Pak with 10 mL NaHCO3 and 10–20 mL air into the product vial. The average injected activity was as median 184 MBq (range 165–196 MBq), corresponding to ~8–10 MBq/kg. The PET was performed ~57 min (33–78 min) after injection of [^18F]NaF (pigs 9–13, Table 1).
(§5) The average injected activity was median 117 MBq (range 109–120 MBq), corresponding to ~5–6 MBq/kg.
(§6) The average injected activity was as median 178 MBq (range 126–253 MBq), corresponding to ~8–12 MBq/kg. The PET was performed ~72 min (60–126 min, early scan) and 139 min (118–186 min, late scan) after injection of [^68Ga]Ga-DOTA-Siglec-9 (pigs 1–3 and 12–15, Table 1).
(§7) ^18F were produced at the PET Center Aarhus using either a PETtrace 800 series cyclotron (GE Healthcare, Uppsala, Sweden) or a Cyclone 18/18 cyclotron (IBA, Louvain La Neuve, Belgium). [^18F]FDG was produced by a standard procedure applying a GE Healthcare MX Tracerlab synthesizer, Mx cassettes supplied by Rotem Industries (Arava, Israel), and chemical kits supplied by ABX GmbH (Radeberg, Germany). […] The median injected activity was 125 MBq (range 94–497 MBq), corresponding to ~5–24 MBq/kg. The PET was performed ~61 min (50–76 min) after injection of [^18F]FDG (pigs 1–15, Table 1).
(§8) The pigs were scanned at locations; Aalborg and Aarhus PET Centers. […] They were in propofol anesthesia and mechanically ventilated throughout the scan. Reflexes, pulse, oxygen saturation, and body temperature were monitored.

[2] = system: S. aureus inoculation abscess / soft tissue infection; test: PET uptake in infected soft tissue (inguinal inoculation abscess, lymph node) of pigs
Text: as §1, §6, §7, §8

[3] = Whole-body PET biodistribution and excretion of tracers in pigs (MIPs); type: in vivo, pig
Text: Reflexes, pulse, oxygen saturation, and body temperature were monitored. […] In the present study, only the whole-body static PET/CT scans are presented.

[4] = Static PET/CT tracer uptake in S. aureus induced osteomyelitis lesions, juvenile pig model; settings: pig, in vivo, iv, Standard uptake values (SUV) in OM lesions
Text: as §1, §2, §3, §4, §5, §6, §7, §8

[5] = system: vascular adhesion protein 1, VAP-1; settings: cited from earlier work
Text: The PET tracer [^68Ga]Ga-DOTA-Siglec-9 binds to a protein involved in leukocyte extravasations (vascular adhesion protein 1, VAP-1). Only recently, we have analyzed the dynamic data. […] However, the distribution volume for the uptake of soft tissue infections was elevated, concluding the tracer has a role for soft tissue infections ...

osteomyelitis lesions = settings: pigs; cited from earlier work
Text: We have previously used ^99mTc-label […] ([^99mTc]Tc-DPD) to examine bone remodeling in pigs. […] We, therefore, moved on to use [^18F]NaF in the present study because [^18F]NaF though acting through similar uptake mechanisms as [^99mTc]Tc-DPD, [^18F]NaF is supposed to have a two-fold higher uptake in bones and a better sensitivity for metastatic osteoblastic metastases.

Q: For `OC[C@H]1OC(O)[C@H]([18F])[C@@H](O)[C@@H]1O` (stereo partly drawn) [[^18F]FDG, [^18F]-fluorodeoxyglucose], which “Standard uptake values (SUV) in OM lesions” value (“Standard uptake values (SUV)” below) ([1]; pig 1, 3 lesions) is on record?
A: Its value is 4–7.3.

Q: And the “Standard uptake values (SUV)” value ([1]; pig 2, 4 lesions)?
A: The value was 2.3–5.9.

Q: What about the “Standard uptake values (SUV)” value ([1]; pig 3, 5 lesions) of the same compound?
A: Its value is 2.9–4.5.

Q: What about the “Standard uptake values (SUV)” value ([1]; pig 4, 2 lesions) of the same compound?
A: The value was 10.5–16.3.

Q: What about the “Standard uptake values (SUV)” value ([1]; pig 5, 3 lesions) of the same compound?
A: Its value is 3.4–9.

Q: And the “Standard uptake values (SUV)” value ([1]; pig 6, 4 lesions)?
A: Its value is 4–9.2.

Q: What about the “Standard uptake values (SUV)” value ([1]; pig 7, 3 lesions) of the same compound?
A: Its value is 3–6.4.

Q: And the “Standard uptake values (SUV)” value ([1]; pig 8, 2 lesions)?
A: The value was 2.4–8.

Q: And the “Standard uptake values (SUV)” value ([1]; pig 9, 4 lesions)?
A: Its value is 5.4–5.9.

Q: What about the “Standard uptake values (SUV)” value ([1]; pig 10, 3 lesions) of the same compound?
A: Its value is 4.4–5.1.

Q: And the “Standard uptake values (SUV)” value ([1]; pig 11, 5 lesions)?
A: Its value is 1–3.9.

Q: And the “Standard uptake values (SUV)” value ([1]; pig 12, 1 lesion)?
A: Its value is 6.1.

Q: What about the “Standard uptake values (SUV)” value ([1]; pig 13, 2 lesions) of the same compound?
A: The value was 7.8–10.1.

Q: What about the “Standard uptake values (SUV)” value ([1]; pig 14, 3 lesions) of the same compound?
A: Its value is 4–7.8.

Q: What about the “Standard uptake values (SUV)” value ([1]; pig 15, 1 lesion) of the same compound?
A: Its value is 3.6.

Q: And the “Number of OM lesions in which the tracer accumulated distinguishably” value ([1]; static PET ~61 min after injection, pigs 1-15)?
A: The value was 45 of the 45.

Q: And the “Uptake in hyperplasic medial iliacus lymph node of the infected side compared to the lymph node in the non-infected left hind limb” value ([2]; pig 12)?
A: Its value is “increased”.

Q: What about the “Change of activity in the margin of the abscess in the static images” value ([2]; pig 12, static images acquired after 60 min, compared to 10-30 min) of the same compound?
A: The value was “increased slightly”.

Q: Which results are given for `[18F-].[Na+]` [[^18F]NaF]?
A: Standard uptake values (SUV) in OM lesions ([1]; pig 9, 4 lesions): 9.2–13.6; Standard uptake values (SUV) in OM lesions ([1]; pig 10, 3 lesions): 15.2–17; Standard uptake values (SUV) in OM lesions ([1]; pig 11, 5 lesions): 5.7–19.2; Standard uptake values (SUV) in OM lesions ([1]; pig 12, 1 lesion): 19.8; Standard uptake values (SUV) in OM lesions ([1]; pig 13, 2 lesions): 7.8–17.6; Tracer accumulation in porcine OM lesions (in words) ([1]; static PET, K-A9 9 lesions, GSGK-A11 5, NaF 15, ubiquicidin 12, Siglec-9 19 lesions (early and late images)): no accumulation; Route of excretion ([3]; pigs, whole-body PET, maximum intensity projections): excreted by the kidneys; Distribution of the tracer in the body outside OM lesions ([3]; pigs, whole-body PET/CT): distributed to the growth zones of the bones

Q: With `CC(C)C[C@@H]1NC(=O)CNC(=O)[C@H](CCCNC(=N)N)NC(=O)[C@H](Cc2c[nH]c3ccccc23)NC(=O)[C@H](CO)NC(=O)[C@H](CC(C)C)NC(=O)[C@H](CO)NC(=O)[C@H](CC(C)C)NC(=O)[C@H](CCCNC(=N)N)NC(=O)[C@H](C)NC(=O)[C@@H](NC(=O)COCCOCCNC(=O)CN2CCN(CC(=O)O)CCN(CC(=O)O)CCN(CC(=O)O)CC2)CSSC[C@@H](C(=O)N2CCC[C@H]2C(=O)N[C@@H](CO)C(=O)N[C@@H](CCCCN)C(N)=O)NC(=O)[C@H](CC(C)C)NC(=O)[C@H]([C@@H](C)O)NC1=O` [[^68Ga]Ga-DOTA-Siglec-9, metal not drawn] ({DOTA-AEEA}-CARLSLSWRGLTLCPSK-NH2; disulfide 1-14; N-terminus and C-terminus assumed) as the compound, how does the SUV [4] read?
A: The SUV was 1.3 SUV.

Q: And the “Tracer accumulation in porcine OM lesions (in words)” value ([1]; pig, in vivo)?
A: The value was “no tracer activity”.

Q: And the “Distribution of the tracer in the body outside OM lesions” value ([3]; pig, in vivo)?
A: Its value is “accumulated in dorsocaudal parts of both lungs”.

Q: What about the “Uptake in the margin of an inguinal abscess adjacent to the S. aureus inoculation site” value ([2]; pig 12, images acquired 10 to 30 min after tracer injection) of the same compound?
A: The value was “marked”.

Q: What about the “Change of activity in the margin of the abscess in the static images” value ([2]; pig, in vivo) of the same compound?
A: Its value is “decreased”.

Q: What about the “Distribution volume for the uptake of soft tissue infections” value ([5]; pig, in vivo) of the same compound?
A: Its value is “elevated”.

Q: What about the “Metabolism of the tracer in vivo” value ([5]; pig, in vivo) of the same compound?
A: The value was “metabolized very quickly”.

Q: And the “Uptake in OM” value ([5]; pig, in vivo)?
A: The value was “no increased”.

Q: And the Kinetics of uptake ([5]; pigs, modeled with the rev2TCM (4 k-parameters))?
A: Its Kinetics of uptake is “reversible kinetics”.

Q: For “^99mTc-label methylene diphosphate [[^99mTc]Tc-DPD]”, which “Tracer uptake in the osteomyelitis lesions” value (osteomyelitis lesions) is on record?
A: The value was “did not observe any tracer uptake”.
